The term melting point denotes the temperature, or range, at which the solid turns liquid.

The record followed here is US8946205B2, “1,2,4-triazolo[4,3-a]pyridine derivatives and their use as positive allosteric modulators of mGluR2 receptors” (Janssen Pharmaceuticals, Inc., priority 2009, dated 2015).

Data set [1] concerns the target T1, human mGluR2 receptor (Homo sapiens, UniProt Q14416).
T1 construct: expressed in transfected cells; host or cells: CHO cells (membranes)
Kind of data set: [35S]GTPγS binding assay (PAM assay, membranes from CHO cells transfected with the human mGluR2 receptor). The format is biochemical. The following applies: in presence of glutamate at EC20; pEC50 = -log EC50 (mol/L); read-out: GTPγS-hR2 PAM pEC50 (converted). Here is the method:
The [^35S]GTPγS binding assay is a functional membrane-based assay used to study G-protein coupled receptor (GPCR) function whereby incorporation of a non-hydrolysable form of GTP, [^35S]GTPγS (guanosine 5′-triphosphate, labelled with […] ^35S), is measured. The G-protein α subunit catalyzes the exchange of guanosine 5′-diphosphate (GDP) by guanosine triphosphate (GTP) and on activation of the GPCR by an agonist, [^35S]GTPγS, becomes incorporated and cannot be cleaved to continue the exchange cycle (Harper (1998) Current Protocols in Pharmacology 2.6.1-10, John Wiley & Sons, Inc.). […] Here we describe the use of the [^35S]GTPγS binding assay using membranes from cells transfected with the human mGluR2 receptor and adapted from Schaffhauser et al. ((2003) Molecular Pharmacology 4:798-810) for the detection of the positive allosteric modulation (PAM) properties of the compounds of this invention.
CHO-cells were cultured to pre-confluence and stimulated with 5 mM butyrate for 24 h, prior to washing in PBS, and then collected by scraping in homogenisation buffer (50 mM Tris-HCl buffer, pH 7.4, 4° C.). Cell lysates were homogenized briefly using an ultra-turrax homogenizer. The homogenate was centrifuged at 16,000 RPM (Sorvall RC-5C plus rotor SS-34) for 10 minutes and the supernatant discarded. The pellet was resuspended in 5 mM Tris-HCl, pH 7.4 and centrifuged again (18,000 RPM, 20 min, 4° C.). The final pellet was resuspended in 50 mM Tris-HCl, pH 7.4 and stored at −80° C. in appropriate aliquots before use. Protein concentration was determined by the Bradford method (Bio-Rad, USA) with bovine serum albumin as standard.
Measurement of mGluR2 positive allosteric modulatory activity of test compounds was performed as follows. Test compounds and glutamate were diluted in assay buffer containing 10 mM HEPES acid, 10 mM HEPES salt, pH 7.4, 100 mM NaCl, 3 mM MgCl2 and 10 μM GDP. Human mGlu2 receptor-containing membranes were thawed on ice and diluted in assay buffer supplemented with 14 μg/ml saponin. Membranes were pre-incubated with compound alone or together with a predefined (˜EC20) concentration of glutamate (PAM assay) for 30 min at 30° C. After addition of [^35S]GTPγS (f.c. 0.1 nM) microplates were shaken briefly and further incubated to allow [^35S]GTPγS incorporation on activation (30 minutes, 30° C.). Final assay mixtures contained 7 μg of membrane protein in 10 mM HEPES acid, 10 mM HEPES salt, pH 7.4, 100 mM NaCl, 3 mM MgCl2,10 μM GDP and 10 μg/ml saponin. Total reaction volume was 200 μl. Reactions were terminated by rapid filtration through Unifilter-96 GF/B filter plates (Packard, Meriden, Conn.) using a 96-well Packard filtermate harvester. Filters were washed 6 times with ice-cold 10 mM NaH2PO4/10 mM Na2HPO4, pH 7.4. Filters were then air-dried, and 40 μl of liquid scintillation cocktail (Microscint-O) was added to each well. Membrane-bound radioactivity was counted in a Microplate Scintillation and Luminescence Counter from Packard.
The concentration-response curves of representative compounds of the present invention—obtained in the presence of EC20 of mGluR2 agonist glutamate to determine positive allosteric modulation (PAM)—were generated using the Lexis software interface (developed at J&J). Data were calculated as % of the control glutamate response, defined as the maximal response that is generated upon addition of glutamate alone. Sigmoid concentration-response curves plotting these percentages versus the log concentration of the test compound were analyzed using non-linear regression analysis. The concentration producing half-maximal effect is then calculated as EC50. The pEC50 values below are calculated as the −log EC50 (wherein EC50 is expressed in mol/L). […]

Some results are limits rather than exact numbers.

T1 sequence (Q14416 19-872): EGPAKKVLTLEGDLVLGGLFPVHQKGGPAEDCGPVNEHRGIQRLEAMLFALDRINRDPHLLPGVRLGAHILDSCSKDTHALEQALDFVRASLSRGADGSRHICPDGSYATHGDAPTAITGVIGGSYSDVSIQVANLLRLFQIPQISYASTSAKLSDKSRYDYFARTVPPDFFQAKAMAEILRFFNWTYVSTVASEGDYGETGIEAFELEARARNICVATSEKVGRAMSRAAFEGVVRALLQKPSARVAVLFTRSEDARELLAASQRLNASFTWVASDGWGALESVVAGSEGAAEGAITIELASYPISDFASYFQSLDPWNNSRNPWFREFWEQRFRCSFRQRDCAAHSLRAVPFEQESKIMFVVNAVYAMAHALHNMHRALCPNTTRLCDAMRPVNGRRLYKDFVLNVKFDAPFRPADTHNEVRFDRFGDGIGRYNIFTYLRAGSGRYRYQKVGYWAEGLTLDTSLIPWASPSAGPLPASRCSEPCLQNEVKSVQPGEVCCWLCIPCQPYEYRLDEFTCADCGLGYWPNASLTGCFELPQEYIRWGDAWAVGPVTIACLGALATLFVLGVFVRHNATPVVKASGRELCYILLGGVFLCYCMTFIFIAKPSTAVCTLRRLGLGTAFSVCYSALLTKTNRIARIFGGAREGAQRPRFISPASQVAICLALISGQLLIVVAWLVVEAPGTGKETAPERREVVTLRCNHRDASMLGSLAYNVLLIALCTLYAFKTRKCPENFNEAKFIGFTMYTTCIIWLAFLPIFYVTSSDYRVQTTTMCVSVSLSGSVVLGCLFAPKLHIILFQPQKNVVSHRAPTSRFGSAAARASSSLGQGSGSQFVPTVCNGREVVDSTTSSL

Regarding `FC(F)(F)Cc1nnc2c(Cl)c(-c3ccc4c(ccn4-c4ccccn4)c3)ccn12` [Compound 1], the melting point was greater than 300 °C. In data set [1], the EC50 was 43.7 nM.

As for `Clc1c(-c2ccc3c(ccn3C3CCOCC3)c2)ccn2c(CC3CC3)nnc12` [Compound 2], the melting point was greater than 300 °C. Also, the EC50 in data set [1] is 64.6 nM.

The compound `FC(F)(F)c1c(-c2ccc3c(ccn3C3CCOCC3)c2)ccn2c(CC3CC3)nnc12` [Compound 3] showed a melting point of 193.1 °C. Further, in data set [1], the EC50 is 28.2 nM.

As for `FC(F)(F)Cc1nnc2c(Cl)c(-c3ccc4c(ccn4-c4ncccn4)c3)ccn12` [Compound 6], in data set [1], the EC50 was 33.9 nM.

For `FC(F)(F)c1c(-c2ccc3c(ccn3-c3ncccn3)c2)ccn2c(CC3CC3)nnc12` [Compound 7], the EC50 in data set [1] was 11.5 nM.

Consider `Clc1cc(-c2ccn3c(CC4CC4)nnc3c2Cl)cc2cc[nH]c12` [Compound 8], for which the melting point stood at 233.5 °C. In addition, the EC50 in data set [1] was 25.1 nM.

`CC(C)(O)Cn1ccc2cc(-c3ccn4c(CC5CC5)nnc4c3Cl)ccc21` [Compound 9]: the EC50 in data set [1] was 158 nM.

For the compound `O[C@H]1CC[C@H](n2ccc3cc(-c4ccn5c(CC6CC6)nnc5c4Cl)ccc32)CC1` [Compound 10], the melting point is greater than 300 °C. Moreover, the EC50 in data set [1] is 52.5 nM.

On to `Clc1c(-c2ccc3nn(Cc4cccnc4)cc3c2)ccn2c(CC3CC3)nnc12` [Compound 11], for which the EC50 in data set [1] is 871 nM.

With `Clc1c(-c2cccc3[nH]ccc23)ccn2c(CC3CC3)nnc12` [Compound 13], the melting point was greater than 300 °C. For the same compound, the EC50 in data set [1] is 813 nM.

`FC(F)(F)c1c(-c2cc(Cl)c3[nH]ccc3c2)ccn2c(CC3CC3)nnc12` [Compound 14] showed a melting point greater than 300 °C. Also, in data set [1], the EC50 is 11 nM.

Consider `Clc1c(-c2ccc3c(ccn3-c3ncccn3)c2)ccn2c(CC3CC3)nnc12` [Compound 15], for which the melting point is greater than 300 °C. In data set [1], the EC50 is 53.7 nM.

As for `Clc1c(-c2ccc3c(ccn3-c3ccccn3)c2)ccn2c(CC3CC3)nnc12` [Compound 16], the melting point came out at 197.1 °C. Also, in data set [1], the EC50 is 67.6 nM.

With `CCOCc1nnc2c(Cl)c(-c3ccc4c(ccn4-c4ccccn4)c3)ccn12` [Compound 18], the melting point was determined as 235 °C. In addition, the EC50 in data set [1] is 288 nM.

`CCOCc1nnc2c(Cl)c(-c3ccc4c(ccn4-c4ncccn4)c3)ccn12` [Compound 19]: the EC50 in data set [1] was 126 nM.

Regarding `Clc1c(-c2ccc3[nH]ccc3c2)ccn2c(CC3CC3)nnc12` [Compound 20], the melting point is greater than 300 °C. The EC50 in data set [1] is 251 nM.

Compound `Cc1ccc(-n2ccc3cc(-c4ccn5c(CC6CC6)nnc5c4Cl)ccc32)cn1` [Compound 21, 8-Chloro-3-cyclopropylmethyl-7-[1-(2-methylpyridin-5-yl)-1H-indol-5-yl]-[1,2,4]triazolo[4,3-a]pyridine] showed a melting point of 137.2 °C. In addition, in data set [1], the EC50 was 23.4 nM.

In the case of `Clc1c(-c2cnc3c(ccn3CC3CC3)c2)ccn2c(CC3CC3)nnc12` [Compound 22, 8-Chloro-3-cyclopropylmethyl-7-(1-cyclopropylmethyl-1H-pyrrolo[2,3-b]pyridin-5-yl)-[1,2,4]triazolo[4,3-a]pyridine], the melting point was 184.7 °C. For the same compound, the EC50 in data set [1] is 324 nM.

Turning to `CCOCc1nnc2c(Cl)c(-c3cc(Cl)c4[nH]ccc4c3)ccn12` [Compound 23], in data set [1], the EC50 is 95.5 nM.

As to `FC(F)(F)c1c(-c2cnc3[nH]ccc3c2)ccn2c(CC3CC3)nnc12` [Compound 24], the melting point is greater than 300 °C. Further, the EC50 in data set [1] is 1410 nM.

As for `FC(F)(F)c1c(-c2cnc3c(ccn3CC3CC3)c2)ccn2c(CC3CC3)nnc12` [Compound 25], the melting point was greater than 300 °C. For the same compound, the EC50 in data set [1] was 182 nM.

Consider `CCOCc1nnc2c(Cl)c(-c3ccc4c(ccn4-c4cccnc4)c3)ccn12` [Compound 26], for which the melting point was determined as 233.2 °C. Besides, in data set [1], the EC50 is 182 nM.

In turn, `CCOCc1nnc2c(Cl)c(-c3ccc4c(ccn4-c4ccc(C)nc4)c3)ccn12` [Compound 27] yielded a melting point of 188.9 °C. Further, the EC50 in data set [1] is 56.2 nM.

Consider `Fc1cc(-c2ccn3c(CC4CC4)nnc3c2Cl)cc2cc[nH]c12` [Compound 28], for which the melting point is 235.5 °C. Besides, the EC50 in data set [1] was 117 nM.

Take `CCOCc1nnc2c(Cl)c(-c3ccc4[nH]ccc4c3)ccn12` [Compound 29]: the melting point was found to be 176.4 °C. Besides, the EC50 in data set [1] is 1260 nM.

`CCOCc1nnc2c(C(F)(F)F)c(-c3ccc4c(ccn4-c4cccnc4)c3)ccn12` [Compound 30] registered a melting point of 182.4 °C. For the same compound, the EC50 in data set [1] was 33.9 nM.

`CCOCc1nnc2c(C(F)(F)F)c(-c3ccc4c(ccn4-c4ccc(C)nc4)c3)ccn12` [Compound 32] gave a melting point of 163.1 °C. In data set [1], the EC50 is 17.4 nM.

`CCOCc1nnc2c(C(F)(F)F)c(-c3ccc4[nH]ccc4c3)ccn12` [Compound 33] registered a melting point of 200.1 °C.

`FC(F)(F)c1c(-c2ccc3c(ccn3-c3cccnc3)c2)ccn2c(CC3CC3)nnc12` [Compound 34] returned a melting point of 144.3 °C.

Regarding `Cc1ccc(-n2ccc3cc(-c4ccn5c(CC6CC6)nnc5c4C)ccc32)cn1` [Compound 35, 8-Methyl-3-cyclopropylmethyl-7-[1-(2-methylpyridin-5-yl)-1H-indol-5-yl]-[1,2,4]triazolo[4,3-a]pyridine], the melting point amounted to 263.3 °C. The EC50 in data set [1] was 70.8 nM.

As to `Cc1ccc(-n2ccc3cc(-c4ccn5c(CC6CC6)nnc5c4C(F)(F)F)ccc32)cn1` [Compound 36], the melting point was determined as 204 °C. Further, the EC50 in data set [1] was 9.33 nM.

The compound `Cc1ccc(-n2ccc3cc(-c4ccn5c(CC6CC6)nnc5c4C4CC4)ccc32)cn1` [Compound 37] yielded a melting point greater than 300 °C. For the same compound, the EC50 in data set [1] was 39.8 nM.

`Cc1ccc(-n2ccc3cc(-c4ccn5c(CC6CC6)nnc5c4C(F)(F)F)cc(F)c32)cn1` [Compound 38] yielded a melting point greater than 300 °C. Moreover, the EC50 in data set [1] was 17 nM.

In turn, `Clc1c(-c2cnc3c(ccn3CC3CCC3)c2)ccn2c(CC3CC3)nnc12` [Compound 39] showed a melting point greater than 300 °C. Besides, the EC50 in data set [1] is 126 nM.

With `Cc1c(-c2cnc3c(ccn3CC3CC3)c2)ccn2c(CC3CC3)nnc12` [Compound 40], the melting point is greater than 300 °C. The EC50 in data set [1] is 407 nM.

`Clc1c(-c2cnc3c(ccn3-c3ccccn3)c2)ccn2c(CC3CC3)nnc12` [Compound 41] gave a melting point greater than 300 °C. Besides, the EC50 in data set [1] is 603 nM.

Consider `Fc1cnccc1-n1ccc2cc(-c3ccn4c(CC5CC5)nnc4c3Cl)ccc21` [Compound 42, 8-Chloro-3-cyclopropylmethyl-7-[1-(3-fluoro-pyridin-4-yl)-1H-indol-5-yl]-[1,2,4]triazolo[4,3-a]pyridine], for which the melting point is greater than 300 °C. Moreover, the EC50 in data set [1] is 28.8 nM.

Turning to `FC(F)(F)c1c(-c2ccc3c(ccn3-c3ccncc3)c2)ccn2c(CC3CC3)nnc12` [Compound 43], the melting point is greater than 300 °C. In addition, the EC50 in data set [1] was 16.6 nM.

In turn, `Clc1c(-c2ccc3c(ccn3-c3ccncc3)c2)ccn2c(CC3CC3)nnc12` [Compound 44] had a melting point greater than 300 °C. Moreover, the EC50 in data set [1] was 66.1 nM.
